Patent publication US5041447A, “Oxetanocin-related compounds and pharmaceutical compositions containing them” (priority 1988, dated 1991)
Converted amounts (≈) assume the structure as drawn.

Assays:
[1] = system: HIV (human immunodeficiency virus); test: Anti-HIV activity: development of virus antigen in HIV-infected MT-4 cells (indirect fluorescent antibody method); type: cell-based; details: 4 days, DMSO only 80 to 90%
Protocol: Anti-HIV (human immunodeficiency virus) activity
MT-4 cell (about 100,000 cells/ml) was added into a 24 well tray, and then 100 microliters of a solution containing a predetermined quantity of a compound of this invention was added. After culturing it at 37° C. for 5 hours in 5% (v/v) carbon dioxide incubator, 10^3 to 10^4 infection units of HIV was added and cultured for 4 days. Then, a part of the cultured fluid was coated onto a slide glass and immobilized with acetone, after which development of virus antigen was observed by indirect fluorescent antibody method.
As the primary antibody of the fluorescent antibody method, a serum of AIDS patient was used. As its secondary antibody, FITC-labelled […] was used.

[2] = system: cytomegalovirus (A0169 strain); test: Anti-cytomegalovirus activity: plaque formation in human fetal fibroblasts; type: cell-based; details: Human betaherpesvirus 5, Fibroblast, 240 h, 100 PFU, 37° C., 10 days
Protocol: Anti-cytomegalovirus activity was determined in the following manner. Thus, a 35 mm.phi. dish containing a single layer of human fetal fibroblasts was infected with 100 PFU (plaque forming units) of cytomegalovirus (A0169 strain). After adsorption for one hour, a medium (0.5% agarose, 2% fetal calf serum) containing a varied concentration of the compound of this invention was superposed thereon, and the whole was cultured at 37° C. for 10 days in 5% (v/v) carbon dioxide incubator, after which the formation of plaque was measured. The results are shown in Table 3 in terms of 50% inhibitory value (IC50).

Row | SMILES | Development of virus antigen (%) ([1]; 3 μg/ml) | Development of virus antigen (%) ([1]; 10 μg/ml) | Development of virus antigen (%) ([1]; 100 μg/ml) | IC50 [2] [µg/mL]
1 | Nc1ncnc2c1ncn2[C@H]1C[C@@H](CO)O1 [Compound No. 1] | 0.1 | < 0.1 | < 0.1 | 
2 | [N-]=[N+]=NC[C@H]1[C@H](n2cnc3c(N)ncnc32)O[C@@H]1CO [Compound No. 2] | 15 | 10 | < 0.1 | 
3 | Nc1ncnc2c1ncn2[C@@H]1O[C@H](CO)[C@@H]1O [Compound No. 3] | 1 | 0.1 | < 0.1 | 
4 | C=C1[C@H](n2cnc3c(N)ncnc32)O[C@@H]1CO [Compound No. 4] | 10 | 3 | < 0.1 | 
5 | CCCCC(=O)OC[C@H]1O[C@@H](n2cnc3c(N)ncnc32)[C@@H]1CO [Compound No. 8] | 5 | 3 | < 0.1 | 
6 | CCCCCCCCCCCCCCCC(=O)OC[C@H]1O[C@@H](n2cnc3c(N)ncnc32)[C@@H]1CO [Compound No. 9] | 7 | 3 | < 0.1 | 1.7 (≈ 3.47 µM)
7 | Nc1ncnc2c1ncn2[C@@H]1O[C@H](CO)[C@H]1F [Compound No. 10] | > 90 | 50 | < 0.1 | 
8 | [N-]=[N+]=N[C@H]1[C@H](n2cnc3c(N)ncnc32)O[C@@H]1CO [Compound No. 11] | > 90 | 75 | < 0.1 | 
9 | O=c1[nH]cnc2c1ncn2[C@H]1C[C@@H](CO)O1 [Compound No. 13] | < 0.1 | < 0.1 | < 0.1 | 
10 | CCCCC(=O)OC[C@H]1O[C@@H](n2cnc3c(=O)[nH]c(N)nc32)[C@@H]1CO [Compound No. 14] |  |  |  | > 5
11 | CCCCC(=O)OC[C@H]1O[C@@H](n2cnc3c(N)nc(N)nc32)[C@@H]1CO [Compound No. 15] |  |  |  | > 5
12 | Nc1ncnc2c1ncn2[C@@H]1O[C@H](CO)[C@H]1N [Compound No. 16] | 17 | 6 | < 0.1 | 
13 | O=c1[nH]cnc2c1ncn2[C@@H]1O[C@H](CO)[C@H]1COS(=O)(=O)O [Compound No. 17] | 60 | 10 | < 0.1 | 
